Reference: patent EP0178682A2, “1,3-Bis(1H-1,2,4-triazol-1-yl)-2-fluoro-2-(2,4-difluorophenyl)propane, antifungal composition containing it, and process for preparation of the compound and the composition” (SCHERING CORPORATION, priority 1984, dated 1986)
Values after ≈ are worked out from the molar mass of the structure shown. Where two headings read alike, the source gives them in different places.

Experiments:
[1] = test system: Candida albicans; assay: mouse Candida albicans oral infection model; type: in vivo; details: compared to ketoconazole
[2] = test system: six strains of Candida; assay: in vitro antifungal activity (MIC) in Eagles medium; type: cell-based; details: for MIC: six strains of Candida
[3] = test system: a large number of fungi; assay: conventional antifungal screening test, in vitro, Sabourand broth medium; type: cell-based

Structure (SMILES)	preventive dosage required for survival of 100% of the test animals [1]	in vitro activity against six strains of Candida compared to ketoconazole [2]	MIC ([2]; after 48 hours, read-out: mean Minimum Inhibitory Concentration (MIC)) [mg/L]	in vitro activity against a large number of fungi [3]	MIC ([2]; read-out: MIC) [mg/L]
Fc1ccc(C(F)(Cn2cncn2)Cn2cncn2)c(F)c1 [compound of this invention, 1,3-Bis(1H-1,2,4-triazol-1-yl)-2-(2,4-difluorophenyl)-2-fluoro-propane]	lower than that required for ketoconazole	significantly lower in vitro activity	4 (≈ 13 µM)	negligible in vitro activity	
CC(=O)N1CCN(c2ccc(OCC3COC(Cn4ccnc4)(c4ccc(Cl)cc4Cl)O3)cc2)CC1 (stereo not drawn) [ketoconazole, reference compound]				negligible in vitro activity	< 0.031
